Test results from patent publication US12011444B2, “N-substituted indole derivatives as PGE2 receptor modulators” (Idorsia Pharmaceuticals Ltd, priority 2015, dated 2024).

How the values were obtained:
PTGER2 (EP2) = PTGER2 (EP2) (Homo sapiens (Human), UniProt P43116); assay: hEP2 b-arrestin assay (PathHunter HEK 293 PTGER2 b-arrestin cells); format: cell-based
Outline: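 Readout is β-galactosidase complementation luminescence, expressed as percent of DMSO control (duplicates). PathHunter HEK293 EP2/β-arrestin 2 cells, grown 24 h, received compound for 15 min at 37 °C before a 120 min challenge with PGE2 at 5 μM final, followed by 1 h detection at room temperature.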

PTRGER4 (EP4) = PTRGER4 (EP4) (Homo sapiens (Human), UniProt P35408); assay: hEP4 b-arrestin assay (PathHunter HEK 293 PTGER4 b-arrestin cells); format: cell-based
PTRGER4 (EP4), sequence (P35408 whole entry, looked up, the tested form may be a part): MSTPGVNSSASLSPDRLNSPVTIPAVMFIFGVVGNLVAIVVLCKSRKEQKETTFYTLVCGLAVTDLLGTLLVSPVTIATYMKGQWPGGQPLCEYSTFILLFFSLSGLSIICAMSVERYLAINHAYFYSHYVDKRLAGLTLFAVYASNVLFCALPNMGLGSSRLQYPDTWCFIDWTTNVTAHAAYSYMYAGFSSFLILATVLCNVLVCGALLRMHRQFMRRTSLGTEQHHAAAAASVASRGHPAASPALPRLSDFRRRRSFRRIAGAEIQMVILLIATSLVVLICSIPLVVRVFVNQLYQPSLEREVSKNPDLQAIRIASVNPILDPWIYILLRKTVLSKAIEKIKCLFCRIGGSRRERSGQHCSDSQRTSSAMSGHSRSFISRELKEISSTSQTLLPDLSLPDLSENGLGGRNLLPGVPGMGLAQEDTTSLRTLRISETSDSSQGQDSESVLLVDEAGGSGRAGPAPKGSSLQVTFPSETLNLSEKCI
Outline: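 Antagonist mode: compound is given 15 min at 37 °C, then 20 nM (final) PGE2 for 120 min, in HEK293 cells stably expressing EP4 fused to ProLink and β-arrestin 2 fused to EA. Recruitment read as β-gal luminescence after 1 h reagent at room temperature, as percent of DMSO control.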

[1] = hEP2 b-arrestin assay (values without asterisk)
[2] = hEP4 b-arrestin assay (values without asterisk)
[3] = antagonistic activity on hEP2, mean where measured multiple times
[4] = antagonistic activity on hEP4, mean where measured multiple times

PTGER2 (EP2), sequence (P43116 whole entry): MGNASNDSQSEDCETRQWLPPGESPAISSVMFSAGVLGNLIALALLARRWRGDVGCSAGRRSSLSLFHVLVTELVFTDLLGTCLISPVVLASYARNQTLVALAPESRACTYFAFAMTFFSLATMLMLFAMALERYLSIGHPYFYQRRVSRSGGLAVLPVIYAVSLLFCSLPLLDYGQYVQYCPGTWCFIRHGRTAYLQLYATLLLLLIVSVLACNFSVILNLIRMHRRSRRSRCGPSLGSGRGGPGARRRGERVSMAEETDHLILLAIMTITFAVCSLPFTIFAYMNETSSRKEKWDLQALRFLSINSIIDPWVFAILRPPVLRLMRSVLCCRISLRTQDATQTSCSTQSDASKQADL

| IC50 (PTGER2 (EP2); [1]) [nM] | IC50 (PTRGER4 (EP4); [2]) [nM] | IC50 (PTGER2 (EP2); [3]) [nM] | IC50 (PTRGER4 (EP4); [4]) [nM] | SMILES |
| --- | --- | --- | --- | --- |
| 3 | 17 |  |  | CCOc1cc(-c2cc(NCCn3c(C)cc4c(OC)ccc(F)c43)ncn2)sc1NC=O [Example 1072, N-(3-Ethoxy-5-{6-[2-(7-fluoro-4-methoxy-2-methyl-indol-1-yl)-ethylamino]-pyrimidin-4-yl}-thiophen-2-yl)-formamide] |
|  |  | 24 | 137 | CCOc1cc(-c2cc(NCCn3c(C#N)cc4c(C)cc(F)cc43)ncn2)ccc1C(=O)O [compound 395] |
|  |  | 18 | 708 | COc1ccc(F)c2c1cc(C)n2CCNc1cc(-c2ccc(C(=O)O)c3[nH]ccc23)ncn1 [compound 323, 4-{6-[2-(7-Fluoro-4-methoxy-2-methyl-indol-1-yl)-ethylamino]-pyrimidin-4-yl}-1H-indole-7-carboxylic acid] |
| 32 | 55 |  |  | CCOc1cc(-c2cc(NCCn3c(C#N)cc4c(OC)ccc(F)c43)ncn2)ccc1C(=O)O [Example 807, 4-{6-[2-(2-Cyano-7-fluoro-4-methoxy-indol-1-yl)-ethylamino]-pyrimidin-4-yl}-2-ethoxy-benzoic acid] |
|  |  | 2 | 394 | CNc1cc(-c2cc(NCCn3c(C)cc4c(F)ccc(C)c43)ncn2)ccc1C(=O)O [compound 211] |
| 26 | 22 |  |  | COc1ccc(F)c2c1cc(C#N)n2CCNc1cc(-c2ccc(C(N)=O)s2)ncn1 [Example 900, 5-{6-[2-(2-Cyano-7-fluoro-4-methoxy-indol-1-yl)-ethylamino]-pyrimidin-4-yl)-thiophene-2-carboxylic acid amide] |
|  |  | 4 | 78 | COc1cc(-c2cc(NCCn3c(C)cc4c(OC)ccc(F)c43)ncn2)ccc1CO [compound 130, (4-{6-[2-(7-Fluoro-4-methoxy-2-methyl-indol-1-yl)-ethylamino]-pyrimidin-4-yl}-2-methoxy-phenyl)-methanol] |
|  |  | 13 | 68 | CCOc1cc(-c2cc(NCCn3c(C)cc4cc(Cl)cc(F)c43)ncn2)sc1C(=O)O [compound 237] |
|  |  | 19 | 249 | Cc1sc(N)nc1-c1ccc(-c2cc(NCCn3c(C)cc4c(C)ccc(F)c43)ncn2)cc1 [compound 298, {6-[4-(2-Amino-5-methyl-thiazol-4-yl)-phenyl]-pyrimidin-4-yl}-[2-(7-fluoro-2,4-dimethyl-indol-1-yl)-ethyl]-amine] |
|  |  | 11 | 32 | COc1cc(F)cc2c1cc(C)n2CCNc1cc(-c2ccc3c(c2)CCN3)ncn1 [compound 62, [6-(2,3-Dihydro-1H-indol-5-yl)-pyrimidin-4-yl]-[2-(6-fluoro-4-methoxy-2-methyl-indol-1-yl)-ethyl]-amine] |
|  |  | 35 | 925 | Cc1ccc2c(c1)cc(C)n2CCNc1cc(-c2ccc(C(=O)O)c(CC(C)C)c2)ncn1 [compound 262] |
| 3 | 6 |  |  | CCOc1cc(-c2cc(NCCn3c(C#N)cc4c(OC)ccc(F)c43)ncn2)sc1C(=O)NS(C)(=O)=O [Example 809, N-(5-{6-[2-(2-Cyano-7-fluoro-4-methoxy-indol-1-yl)-ethylamino]-pyrimidin-4-yl}-3-ethoxy-thiophene-2-carbonyl)-methanesulfonamide] |
| 8 | 12 |  |  | CCOc1cc(-c2cc(NCCn3c(C#N)cc4c(OC)cccc43)ncn2)ccc1OCC(=O)O [Example 870, (4-{6-[2-(2-Cyano-4-methoxy-indol-1-yl)-ethylamino]-pyrimidin-4-yl}-2-ethoxy-phenoxy)-acetic acid] |
| 3 | 6 |  |  | CCOc1cc(-c2cc(NCCn3c(C#N)cc4c(C)cc(F)c(F)c43)ncn2)sc1C(=O)O [Example 942, 5-{6-[2-(2-Cyano-6,7-difluoro-4-methyl-indol-1-yl)-ethylamino]-pyrimidin-4-yl}-3-ethoxy-thiophene-2-carboxylic acid] |
| 104 | 224 |  |  | COc1ccc(F)c2c1cc(C)n2CCNc1cc(-c2ccc(C(=O)O)c(OC3CC4(COC4)C3)c2)ncn1 [Example 1039, 4-{6-[2-(7-Fluoro-4-methoxy-2-methyl-indol-1-yl)-ethylamino]-pyrimidin-4-yl}-2-(2-oxaspiro[3.3]hept-6-yloxy)-benzoic acid] |

Second part, the molecule before the results:

| SMILES | IC50 (PTGER2 (EP2); [1]) [nM] | IC50 (PTRGER4 (EP4); [2]) [nM] | IC50 (PTGER2 (EP2); [3]) [nM] | IC50 (PTRGER4 (EP4); [4]) [nM] |
| --- | --- | --- | --- | --- |
| CCOc1cc(-c2cc(NCCn3c(C)cc4c(OC)ccc(Cl)c43)ncn2)sc1C(=O)O [compound 256] |  |  | 3 | 29 |
| Cc1ccc(F)c2c1cc(C)n2CCNc1cc(-c2ccc(S(=O)(=O)O)cc2)ncn1 [compound 37, 4-{6-[2-(7-Fluoro-2,4-dimethyl-indol-1-yl)-ethylamino]-pyrimidin-4-yl}-benzenesulfonic acid] |  |  | 34 | 436 |
| COc1ccc(F)c2c1cc(C)n2CCNc1cc(-c2ccc(-c3ncno3)cc2)ncn1 [compound 186, [2-(7-Fluoro-4-methoxy-2-methyl-indol-1-yl)-ethyl]-[6-(4-[1,2,4]oxadiazol-5-yl-phenyl)-pyrimidin-4-yl]-amine] |  |  | 7 | 124 |
| CCNc1csc(-c2cc(NCCn3c(C)cc4c(C)cc(F)cc43)ncn2)c1 [Example 1069, [6-(4-Ethylamino-thiophen-2-yl)-pyrimidin-4-yl]-[2-(6-fluoro-2,4-dimethyl-indol-1-yl)-ethyl]-amine] | 9 | 41 |  |  |
| COc1cccc2c1cc(C)n2CCNc1cc(-c2cc(C)c(C(=O)O)c(Cl)c2)ncn1 [compound 131, 2-Chloro-4-{6-[2-(4-methoxy-2-methyl-indol-1-yl)-ethylamino]-pyrimidin-4-yl}-6-methyl-benzoic acid] |  |  | 23 | 402 |
| N#Cc1cc2cccc(F)c2n1CCNc1cc(-c2cc(C(F)(F)F)c(C(=O)O)s2)ncn1 [Example 859, 5-{6-[2-(2-Cyano-7-fluoro-indol-1-yl)-ethylamino]-pyrimidin-4-yl}-3-trifluoromethyl-thiophene-2-carboxylic acid] | 6 | 60 |  |  |
| Cc1cc(-c2ccc(-c3cc(NCCn4c(C)cc5c(C)cc(F)cc54)ncn3)cc2)n[nH]1 [compound 178, [2-(6-Fluoro-2,4-dimethyl-indol-1-yl)-ethyl]-{6-[4-(5-methyl-1H-pyrazol-3-yl)-phenyl]-pyrimidin-4-yl}-amine] |  |  | 18 | 168 |
| N#Cc1cc2c(Cl)cc(Cl)cc2n1CCNc1cc(-c2cc(F)c(C(=O)O)s2)ncn1 [Example 850, 5-{6-[2-(4,6-Dichloro-2-cyano-indol-1-yl)-ethylamino]-pyrimidin-4-yl}-3-fluoro-thiophene-2-carboxylic acid] | 2 | 79 |  |  |
| COc1ccc(F)c2c1cc(C)n2CCNc1cc(-c2cc(OC(C)C)c(CCC(=O)O)s2)ncn1 [Example 1013, 3-(5-{6-[2-(7-Fluoro-4-methoxy-2-methyl-indol-1-yl)-ethylamino]-pyrimidin-4-yl}-3-isopropoxy-thiophen-2-yl)-propionic acid] | 14 | 17 |  |  |
| COc1ccc(F)c2c1cc(C#N)n2CCNc1cc(-c2ccc3nn[nH]c3c2)ncn1 [Example 985, 1-{2-[6-(3H-Benzotriazol-5-yl)-pyrimidin-4-ylamino]-ethyl}-7-fluoro-4-methoxy-1H-indole-2-carbonitrile] | 25 | 14 |  |  |
| COc1ccc(F)c2c1cc(C#N)n2CCNc1cc(-c2ccnc(C(F)(F)F)c2)ncn1 [Example 1007, 7-Fluoro-4-methoxy-1-{2-[6-(2-trifluoromethyl-pyridin-4-yl)-pyrimidin-4-ylamino]-ethyl}-1H-indole-2-carbonitrile] | 24 | 67 |  |  |
| Cc1ccc(F)c2c1cc(C)n2CCNc1cc(-c2ccc(CO)c(F)c2)ncn1 [compound 21, (2-Fluoro-4-{6-[2-(7-fluoro-2,4-dimethyl-indol-1-yl)-ethylamino]-pyrimidin-4-yl}-phenyl)-methanol] |  |  | 42 | 287 |
| COc1ccc(F)c2c1cc(C)n2CCNc1cc(-c2ccc3ccncc3c2)ncn1 [compound 383] |  |  | 17 | 147 |
| CCCCOc1cc(-c2cc(NCCn3c(C)cc4c(OC)cc(F)c(F)c43)ncn2)ccc1C(=O)O [Example 878, 2-Butoxy-4-{6-[2-(6,7-difluoro-4-methoxy-2-methyl-indol-1-yl)-ethylamino]-pyrimidin-4-yl}-benzoic acid] | 1 | 22 |  |  |
| COc1cc(F)c(F)c2c1cc(C)n2CCNc1cc(-c2ccc(-c3c[nH]cn3)cc2)ncn1 [compound 307, [2-(6,7-Difluoro-4-methoxy-2-methyl-indol-1-yl)-ethyl]-{6-[4-(1H-imidazol-4-yl)-phenyl]-pyrimidin-4-yl}-amine] |  |  | 25 | 47 |
| CCOc1cc(-c2cc(NCCn3c(C)cc4ccc(Cl)c(Cl)c43)ncn2)sc1C(=O)O [compound 236] |  |  | 9 | 413 |
| CCOc1cc(-c2cc(NCCn3c(C)cc4c(C)cc(Cl)cc43)ncn2)sc1C(=O)O [compound 224] |  |  | 4 | 20 |
| CCc1cc(-c2cc(NCCn3c(C)cc4c(OC)cccc43)ncn2)cc(Cl)c1C(=O)O [compound 160, 2-Chloro-6-ethyl-4-{6-[2-(4-methoxy-2-methyl-indol-1-yl)-ethylamino]-pyrimidin-4-yl}-benzoic acid] |  |  | 48 | 204 |
| COc1ccc(F)c2c1cc(C#N)n2CCNc1cc(-c2ccc(-c3cn(C)c(C4CC4)n3)cc2)ncn1 [Example 827, 1-(2-{6-[4-(2-Cyclopropyl-1-methyl-1H-imidazol-4-yl)-phenyl]-pyrimidin-4-ylamino}-ethyl)-7-fluoro-4-methoxy-1H-indole-2-carbonitrile] | 16 | 7 |  |  |
